Data reported in ChEMBL document CHEMBL1151368, “Some new decussine-type alkaloids from Strychnos decussata, Strychnos dale and Strychnos elaecocarpa” (1981).
Calls of active or inactive are those of the source. No cut-off for these calls is given here.

Key:
Assay type in all cases: functional
Rattus norvegicus [1] = species: Rattus norvegicus; assay: Muscle relaxant activity in rat assessed as reduction in electrically stimulated phrenic nerve-induced diaphragm contraction at 50 ug/ml
Rattus norvegicus [2] = species: Rattus norvegicus; assay: Muscle relaxant activity in rat assessed as reduction in electrically stimulated phrenic nerve-induced diaphragm contraction at 5.1 ug/ml in presence of synstigmine
Rattus norvegicus [3] = species: Rattus norvegicus; assay: Muscle relaxant activity in rat assessed as reduction in electrically stimulated phrenic nerve-induced diaphragm contraction at 5.1 ug/ml; parameters: scale not given: the % may be the effect or the level left

## C[C@@H]1c2cnccc2CC2c3c(c4ccccc4n31)CCN2C (stereo partly drawn)
Rattus norvegicus [1]
  Activity: inactive

## C[C@@H]1c2cnccc2C=C2c3c(c4ccccc4n31)CCN2C [DECUSSINE]
Rattus norvegicus [2]
  Activity: Active
Rattus norvegicus [3]
  Activity: 50%
